Active and inactive are the calls of the source. No cut-off for these calls is given here.
Tests used:
[1] = organism: Homo sapiens; assay: Modulation of human SMN2 mRNAsplicing expressed in HEK293H cells by qRT-PCR analysis; assay type: cell-based
[2] = Effect on human FOXM1a mRNA splicing expressed in human SMA-derived fibroblasts by RT-qPCR analysis; assay type: ADME
[3] = Effect on FOXM1b/c mRNA splicing in human induced pluripotent stem cells by RT-qPCR analysis; assay type: ADME; conditions: Homo sapiens
[4] = Effect on FOXM1b/c mRNA splicing in cynomolgus monkey induced pluripotent stem cells by RT-qPCR analysis; assay type: ADME, Macaca fascicularis; conditions: Macaca fascicularis
[5] = molecular target: hERG (KCNH2) (Homo sapiens, UniProt Q12809); assay: Inhibition of human ERG at 37 degC; conditions: human
[6] = Cardiotoxicity in cynomolgus monkey assessed as prolongation of QTc interval time; assay type: toxicity, Macaca fascicularis
[7] = Fraction unbound in human plasma; assay type: ADME, cell-free
[8] = Fraction unbound in mouse plasma; assay type: ADME, cell-free
[9] = Clearance in rat at 1.9 mg/kg, iv administered as single dose; assay type: ADME, organism-based; conditions: in vivo
[10] = Volume of distribution at steady state in rat at 1.9 mg/kg, iv administered as single dose; assay type: ADME, organism-based; conditions: in vivo, read-out: Vdss
[11] = Half life in rat at 5.5 mg/kg, po administered as single dose; assay type: ADME, organism-based; conditions: in vivo
[12] = Oral bioavailability in rat at 5.5 mg/kg administered as single dose; assay type: ADME, organism-based; conditions: in vivo
[13] = Clearance in cynomolgus monkey at 0.1 mg/kg, iv administered as single dose; assay type: ADME, organism-based, Macaca fascicularis; conditions: in vivo
[14] = Volume of distribution at steady state in cynomolgus monkey at 0.1 mg/kg, iv administered as single dose; assay type: ADME, organism-based, Macaca fascicularis; conditions: in vivo, read-out: Vdss
[15] = Half life in cynomolgus monkey at 0.5 mg/kg, po administered as single dose; assay type: ADME, organism-based, Macaca fascicularis; conditions: in vivo
[16] = tested on: Mus musculus; assay: In-vivo stabilization of SMN2 mRNA in SMA adult C/C allele mouse model assessed as increase in SMN protein levels in brain at 1 mg/kg, po dosed once daily for 10 days relative to control; assay type: functional
[17] = tested on: Mus musculus; assay: In-vivo stabilization of SMN2 mRNA in SMA adult C/C allele mouse model assessed as increase in SMN protein levels in brain at 3 mg/kg, po dosed once daily for 10 days relative to control; assay type: functional
[18] = tested on: Mus musculus; assay: In-vivo stabilization of SMN2 mRNA in SMA adult C/C allele mouse model assessed as increase in SMN protein levels in brain at 10 mg/kg, po dosed once daily for 10 days relative to control; assay type: functional
[19] = tested on: Mus musculus; assay: In-vivo stabilization of SMN2 mRNA in SMA adult C/C allele mouse model assessed as increase in SMN protein levels in quadriceps at 1 mg/kg, po dosed once daily for 10 days relative to control; assay type: functional
[20] = tested on: Mus musculus; assay: In-vivo stabilization of SMN2 mRNA in SMA adult C/C allele mouse model assessed as increase in SMN protein levels in quadriceps at 3 mg/kg, po dosed once daily for 10 days relative to control; assay type: functional
[21] = tested on: Mus musculus; assay: In-vivo stabilization of SMN2 mRNA in SMA adult C/C allele mouse model assessed as increase in SMN protein levels in quadriceps at 10 mg/kg, po dosed once daily for 10 days relative to control; assay type: functional
[22] = tested on: Mus musculus; assay: In-vivo stabilization of SMN2 mRNA in SMA neonatal delta7 mouse model assessed as increase in SMN protein levels in brain at 0.1 mg/kg, ip dosed once daily starting from postnatal day 3 to postnatal day 9 relative to control; assay type: functional
[23] = tested on: Mus musculus; assay: In-vivo stabilization of SMN2 mRNA in SMA neonatal delta7 mouse model assessed as increase in SMN protein levels in brain at 1 mg/kg, ip dosed once daily starting from postnatal day 3 to postnatal day 9 relative to control; assay type: functional
[24] = tested on: Mus musculus; assay: In-vivo stabilization of SMN2 mRNA in SMA neonatal delta7 mouse model assessed as increase in SMN protein levels in quadriceps at 1 mg/kg, ip dosed once daily starting from postnatal day 3 to postnatal day 9 relative to control; assay type: functional
[25] = tested on: Mus musculus; assay: In-vivo stabilization SMN2 mRNA in SMA delta7 mouse assessed as increase in mean survival day at 0.1 to 3 mg/kg, ip dosed daily starting from postnatal day 3 to postnatal day 23 followed by po dosing 0.3 to 10 mg/kg per day via gavage; assay type: functional, organism-based
[26] = tested on: Mus musculus; assay: In-vivo stabilization SMN2 mRNA in SMA delta7 ip dosed mouse assessed as increase in number of vGlut1 inputs in L3 to L5 spinal cord dosed daily starting from postnatal day 3 to postnatal day 14 by immunohistochemistry; assay type: functional, organism-based
[27] = tested on: Mus musculus; assay: In-vivo stabilization SMN2 mRNA in SMA delta7 ip dosed mouse assessed as increase in muscle size dosed daily starting from postnatal day 3 to postnatal day 14 by immunohistochemistry; assay type: functional, organism-based
[28] = tested on: Mus musculus; assay: In-vivo stabilization SMN2 mRNA in SMA delta7 ip dosed mouse assessed as increased muscle size in the EDL dosed daily starting from postnatal day 3 to postnatal day 14 by immunohistochemistry; assay type: functional, organism-based
[29] = tested on: NIH3T3; assay: Phototoxicity in mouse 3T3 cells assessed as decrease in cell viability at 9 uM in presence of UV light by neutral red uptake assay; assay type: cell-based; conditions: nih3t3, 9 µM
[30] = Toxicity in po dosed rat assessed phospholipidosis administered via gavage up to 26 weeks; assay type: organism-based; conditions: in vivo, 4368 h
[31] = tested on: Mus musculus; assay: In-vivo stabilization of SMN2 mRNA in SMA neonatal delta7 mouse model assessed as increase in SMN protein levels in quadriceps at 10 mg/kg, ip dosed once daily starting from postnatal day 3 to postnatal day 9 relative to control; assay type: functional
[32] = molecular target: Survival motor neuron protein (Homo sapiens) (UniProt Q16637); assay: Activation of SMN protein in human SMA-derived fibroblasts after 48 hrs by HTRF assay
[33] = Stabilization of human APLP2 mRNA splicing expressed in human SMA-derived fibroblasts at 121 to 605 nM by RT-qPCR analysis; assay type: ADME; conditions: 0.605 µM
[34] = Stabilization of human […] mRNA splicing expressed in human SMA-derived fibroblasts at 121 to 605 nM by RT-qPCR analysis; assay type: ADME; conditions: 0.605 µM
[35] = Chronic toxicity in retina of po dosed cynomolgus monkey assessed as formation of microcystic spaces in the inner retinal layers after 39 weeks by OCT analysis; assay type: organism-based, Macaca fascicularis; conditions: in vivo, 6552 h
[36] = Chronic toxicity in retina of po dosed cynomolgus monkey assessed as formation of scotopic depressed B-waves after 39 weeks by ERG analysis; assay type: organism-based, Macaca fascicularis; conditions: in vivo, 6552 h
[37] = Chronic toxicity in retina of po dosed cynomolgus monkey assessed as effect on outer nuclear layers after 39 weeks by histological analysis; assay type: organism-based, Macaca fascicularis; conditions: in vivo, 6552 h
[38] = Chronic toxicity in retina of po dosed cynomolgus monkey assessed as excess vacuolation of inner nuclear layer after 39 weeks by histological analysis; assay type: organism-based, Macaca fascicularis; conditions: in vivo, 6552 h
[39] = AUC (0 to 24 hrs) in SMA adult C/C allele mouse model at 1 mg/kg, po dosed once daily for 10 days; assay type: ADME, organism-based; set-up: dose 1 mg/kg, time < 24 hr, route oral; conditions: in vivo
[40] = AUC (0 to 24 hrs) in SMA neonatal delta7 mouse model at 0.1 mg/kg, ip dosed once daily starting from postnatal day 3 to postnatal day 9; assay type: ADME, organism-based; set-up: time < 24 hr, dose 0.1 mg/kg, route intraperitoneal; conditions: in vivo
[41] = physchem

Chain of hERG (KCNH2) (Q12809 whole entry): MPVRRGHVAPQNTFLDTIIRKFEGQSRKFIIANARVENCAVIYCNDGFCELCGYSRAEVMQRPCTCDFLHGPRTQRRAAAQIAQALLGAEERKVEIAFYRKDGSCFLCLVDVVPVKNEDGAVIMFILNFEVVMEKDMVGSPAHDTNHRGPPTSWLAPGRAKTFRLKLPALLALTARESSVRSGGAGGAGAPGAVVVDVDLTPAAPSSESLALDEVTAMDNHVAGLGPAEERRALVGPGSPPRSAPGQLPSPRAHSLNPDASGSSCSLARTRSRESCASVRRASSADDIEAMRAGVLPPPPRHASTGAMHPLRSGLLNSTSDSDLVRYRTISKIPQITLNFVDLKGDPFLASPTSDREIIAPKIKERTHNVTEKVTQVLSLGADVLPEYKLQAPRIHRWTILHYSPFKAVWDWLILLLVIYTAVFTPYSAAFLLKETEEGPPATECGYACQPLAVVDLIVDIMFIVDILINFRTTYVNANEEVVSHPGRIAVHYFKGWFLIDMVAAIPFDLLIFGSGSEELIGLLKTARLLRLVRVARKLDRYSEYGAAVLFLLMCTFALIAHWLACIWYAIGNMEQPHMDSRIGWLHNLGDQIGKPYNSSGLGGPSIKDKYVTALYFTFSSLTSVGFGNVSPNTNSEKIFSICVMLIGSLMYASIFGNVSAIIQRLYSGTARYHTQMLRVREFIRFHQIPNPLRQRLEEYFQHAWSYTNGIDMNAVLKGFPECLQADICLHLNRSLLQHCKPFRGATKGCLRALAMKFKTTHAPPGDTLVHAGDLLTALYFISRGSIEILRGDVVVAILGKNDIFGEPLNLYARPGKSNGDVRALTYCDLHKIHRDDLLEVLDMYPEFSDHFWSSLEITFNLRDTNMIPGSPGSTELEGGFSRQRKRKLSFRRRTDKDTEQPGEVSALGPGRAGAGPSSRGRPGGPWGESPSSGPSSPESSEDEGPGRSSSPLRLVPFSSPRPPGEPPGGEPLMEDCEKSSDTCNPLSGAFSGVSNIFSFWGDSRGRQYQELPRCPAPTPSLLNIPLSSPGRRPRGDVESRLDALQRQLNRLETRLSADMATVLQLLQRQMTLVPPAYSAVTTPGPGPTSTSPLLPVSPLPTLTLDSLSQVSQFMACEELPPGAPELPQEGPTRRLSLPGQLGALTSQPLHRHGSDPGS
Chain of Survival motor neuron protein (Homo sapiens) (Q16637 whole entry): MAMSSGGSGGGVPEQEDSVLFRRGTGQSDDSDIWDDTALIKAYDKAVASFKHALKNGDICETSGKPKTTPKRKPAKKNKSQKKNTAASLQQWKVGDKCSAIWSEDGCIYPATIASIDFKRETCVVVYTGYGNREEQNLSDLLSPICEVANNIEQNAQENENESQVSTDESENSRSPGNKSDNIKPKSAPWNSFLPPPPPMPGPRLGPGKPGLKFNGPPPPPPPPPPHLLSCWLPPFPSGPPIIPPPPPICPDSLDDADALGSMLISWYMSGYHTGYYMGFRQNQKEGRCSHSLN

Compound: Cc1cn2nc(-c3cc(=O)n4cc(N5CCNC6(CC6)C5)ccc4n3)cc(C)c2n1
- EC1.5 [1]: 4 nM
- EC50 [2]: 67 nM
- IC50 [3]: 113 nM
- IC50 [4]: 155 nM
- IC20 [5]: > 5000 nM
- Activity [6]: Non-Toxic
- fraction unbound [7]: 0.11
- fraction unbound [8]: 0.1
- clearance [9]: 8.9 mL/min/kg
- Vd [10]: 3.1 L/kg
- half-life [11]: 6.4 h
- bioavailability [12]: 100%
- clearance [13]: 5.7 mL/min/kg
- Vd [14]: 2 L/kg
- half-life [15]: 5.4 h
- Activity [16]: 0%
- Activity [17]: 17%
- Activity [18]: 100%
- Activity [19]: 0%
- Activity [20]: 0%
- Activity [21]: 49%
- Activity [22]: 28%
- Activity [23]: 206%
- Activity [24]: 210%
- Activity [25]: Active
- Activity [26]: Dose-dependent effect
- Activity [27]: Dose-dependent effect
- Activity [28]: Dose-dependent effect
- Activity [29]: Non-Toxic
- Activity [30]: Non-Toxic
- Activity [31]: 241%
- EC1.5 [32]: 29 nM
- Activity [33]: Non-Toxic
- Activity [34]: Non-Toxic
- Activity [35]: Toxic
- Activity [36]: Toxic
- Activity [37]: Toxic
- Activity [38]: Toxic
- AUC at 24 h [39]: 9000 ng·h/mL
- AUC at 24 h [40]: 2200 ng·h/mL
- pKa [41]: 6.8

— ChEMBL document CHEMBL4382198, “Discovery of Risdiplam, a Selective Survival of Motor Neuron-2 ( SMN2) Gene Splicing Modifier for the Treatment of Spinal Muscular Atrophy (SMA)” (J Med Chem, 2018)
